Test results as given in ChEMBL document CHEMBL3217413, “Chemical space as a source for new drugs” (Medchemcomm, 2010).
Calls of active or inactive are those of the source. No cut-off for these calls is given here.

Tests used:
[1] = molecular target: Glutamate [NMDA] receptor (Homo sapiens) (UniProt Q05586+Q12879+Q13224+O15399+O60391+Q14957+Q8TCU5); assay: (§1) Inhibition of NMDA receptor glycine binding site (unknown origin)
[2] = molecular target: Glutamate [NMDA] receptor; assay: as §1; set-up: species or system Homo sapiens
[3] = molecular target: Adrenergic receptor alpha-1 (Homo sapiens) (UniProt P35348+P25100+P35368); assay: Inhibition of alpha1 adrenergic receptor (unknown origin) at 10 uM by radioligand displacement assay; assay type: protein assay
[4] = tested on: Human immunodeficiency virus; assay: Antiviral activity against HIV; assay type: functional, organism-based; settings: Human immunodeficiency virus 1
[5] = Inhibition of estrogen receptor (unknown origin); set-up: species or system Homo sapiens
Nucleic Acid = assay: Inhibition of TAT/TAR RNA interaction in HIV1; assay type: nucleic-acid assay, Human immunodeficiency virus 1

| SMILES | IC50 [2] [µM] | other results |
| --- | --- | --- |
| NC[C@H]1CNC(=O)C(=O)N1 | – | inhibition [1]: inactive |
| C[C@H](N)CC(=O)NCC(=O)O | 28 | – |
| OCc1ccccc1C1CCCNC1 (stereo not given) | – | inhibition [3]: > 50% |
| CC(C)n1c(O)nnc1Sc1cccc(C(F)(F)F)c1 | – | IC50 [4]: 80 µM |
| C[C@@H](NCCN)C(=O)O | 112 | – |
| NC[C@@H]1NC(=O)CNC1=O | 370 | – |
| Oc1ccc(-c2cc3ccc(O)cc3s2)cc1 [RALOXIFENE CORE] | – | IC50 [5]: 0.34 µM |
| CCOc1cccc(CN(c2cccc(F)c2)C2CCNCC2)c1 | – | IC50 (Nucleic Acid): 500 µM |
| CCNCCC(=O)NCCC(=O)O | 60 | – |
| NCCCC(=O)NCC(=O)O | 61 | – |
